# Results as given in patent US20100322882A1, “SOLUBILIZING AGENTS FOR ACTIVE OR FUNCTIONAL ORGANIC COMPOUNDS” (ISP INVESTMENTS INC., priority 2006, published 2010).
# Experiments:
# [1] = UV absorption spectra of sunscreens in selected solvents; assay type: physicochemical; design: λmax of E-517 / λmax of E-567 / λmax of BEMT / λmax of EHT: unit not given here; conditions: for ε of BEMT at λmax / λmax of BEMT: 10 mg/L BEMT in the solvent; for ε of E-517 at λmax / λmax of E-517: 10 mg/L E-517 in the solvent; for ε of E-567 at λmax / λmax of E-567: 10 mg/L E-567 in the solvent; for ε of EHT at λmax / λmax of EHT: 10 mg/L EHT in the solvent; for ε of MBC at λmax / λmax of MBC: 10 mg/L MBC in the solvent
# Experimental: Solutions containing 10 mg/L of sunscreen in selected solvents were prepared, and their UV spectra were measured using a Cary 1E UV-Visible spectrophotometer. […] They are also higher in 2-phenylethyl cyclohexanoate for Escalol® 517 and Escalol® 567.
# [2] = Solubility of solid organic sunscreens in solubilizers (25° C.); assay type: physicochemical; conditions: for Solubility of MBC in the solvent: solute 4-Methylbenzylidene camphor (MBC); for Solubility of E-517 (Avobenzone) in the solvent: solute Avobenzone (E-517); for Solubility of BEMT in the solvent: solute Bis-ethylhexyloxyphenol methoxyphenyl triazine (BEMT); for Solubility of EHT in the solvent: solute Ethylhexyl triazone (EHT); for Solubility of E-567 (Oxybenzone) in the solvent: solute Oxybenzone (E-567)
# Experimental: Upon cooling to 25° C., a few seed crystals (<10 mg) of the sunscreen were added to hasten equilibration. The solutions were stored in the dark in a constant temperature chamber at 25° C. Each was sampled weekly, and the ca. 0.1 g sample was filtered through a 0.45μ syringe filter and analyzed by GLC or HPLC, calibrated using standard solutions, until the value for wt. % of solute was constant.
# [3] = second (shorter wavelength) band
Compound,ε of BEMT at λmax ([1]; first (longer wavelength) band),λmax of BEMT ([1]; first (longer wavelength) band),"ε of BEMT at λmax [1, 3]","λmax of BEMT [1, 3]",ε of E-517 at λmax ([1]; first (longer wavelength) band),λmax of E-517 ([1]; first (longer wavelength) band),ε of E-567 at λmax ([1]; first (longer wavelength) band),λmax of E-567 ([1]; first (longer wavelength) band),"ε of E-567 at λmax [1, 3]","λmax of E-567 [1, 3]","ε of EHT at λmax [1, 3]","λmax of EHT [1, 3]","ε of MBC at λmax [1, 3]","λmax of MBC [1, 3] [nm]",Solubility of MBC in the solvent [2] [wt. %],Solubility of E-517 (Avobenzone) in the solvent [2] [wt. %],Solubility of BEMT in the solvent [2] [wt. %],Solubility of EHT in the solvent [2] [wt. %],Solubility of E-567 (Oxybenzone) in the solvent [2] [wt. %]
"CCCCC(=O)OCCc1ccccc1 [2-phenylethyl pentanoate, 2-Phenylethyl Pentanoate]","(48,000)",345,"(42,900)",312,"(34,100)",359,"(9,600)",327,"(14,300)",287,"(123,000)",312,"(23,600)",298,41,22,27,10,35
CCCCCCCCOC(=O)OCc1ccccc1 [benzyl octyl carbonate],–,–,–,–,–,–,–,–,–,–,–,–,–,–,35,17,18,6,27
CCC(=O)OC(C)c1ccccc1 (stereo not shown) [1-phenylethyl propionate],–,–,–,–,–,–,–,–,–,–,–,–,–,–,44,23,26,10,38
CCC(=O)OCCOc1ccccc1 [2-phenoxyethyl propionate],–,–,–,–,–,–,–,–,–,–,–,–,–,–,39,21,13,6,38
CCC(=O)OCCc1ccccc1 [2-phenylethyl propionate],–,–,–,–,–,–,–,–,–,–,–,–,–,–,44,25,33,12,40
CCCC(=O)OCc1ccccc1 [benzyl butyrate],–,–,–,–,–,–,–,–,–,–,–,–,–,–,–,24,32,10,39
"O=C(OCCc1ccccc1)C1CCCCC1 [2-phenylethyl cyclohexanoate, 2-Phenylethyl Cyclohexanecarboxylate]","(49,000)",345,–,–,"(34,500)",359,"(12,100)",326,–,–,"(47,300)",317,"(10,400)",317,37,20,32,10,32
CC(C)(C)C(=O)OCCc1ccccc1 [2-phenylethyl neopentanoate],–,–,–,–,–,–,–,–,–,–,–,–,–,–,38,19,28,5,29
CC(O)C(=O)OCc1ccccc1 (stereo not shown) [benzyl lactate],–,–,–,–,–,–,–,–,–,–,–,–,–,–,30,11,2,8,30
"CCCCCCCCOC(=O)OCCCCCCCC [dioctyl carbonate, reference compound]",–,–,–,–,–,–,–,–,–,–,–,–,–,–,29,13,10,7,16
CCCCC(CC)C(=O)OCCc1ccccc1 (stereo not shown) [2-phenylethyl 2-ethylhexanoate],–,–,–,–,–,–,–,–,–,–,–,–,–,–,34,17,18,4,25

# Further lines, results first:
ε of BEMT at λmax ([1]; first (longer wavelength) band),λmax of BEMT ([1]; first (longer wavelength) band),"ε of BEMT at λmax [1, 3]","λmax of BEMT [1, 3]",ε of E-517 at λmax ([1]; first (longer wavelength) band),λmax of E-517 ([1]; first (longer wavelength) band),ε of E-567 at λmax ([1]; first (longer wavelength) band),λmax of E-567 ([1]; first (longer wavelength) band),"ε of E-567 at λmax [1, 3]","λmax of E-567 [1, 3]","ε of EHT at λmax [1, 3]","λmax of EHT [1, 3]","ε of MBC at λmax [1, 3]","λmax of MBC [1, 3] [nm]",Solubility of MBC in the solvent [2] [wt. %],Solubility of E-517 (Avobenzone) in the solvent [2] [wt. %],Solubility of BEMT in the solvent [2] [wt. %],Solubility of EHT in the solvent [2] [wt. %],Solubility of E-567 (Oxybenzone) in the solvent [2] [wt. %],Compound
–,–,–,–,–,–,–,–,–,–,–,–,–,–,42,24,27,16,39,"O=C(OCCc1ccccc1)C1CC1 [2-phenylethyl cyclopropanoate, 2-Phenylethyl Cyclopropanecarboxylate]"
–,–,–,–,–,–,–,–,–,–,–,–,–,–,26,8,5,3,11,"CC(C)CCCCCCCOC(=O)C(C)(C)C [isodecyl neopentanoate, reference compound]"
"(43,800)",347,"(40,800)",313,"(33,400)",358,"(9,260)",328,"(9,310)",298,"(117,000)",313,"(22,000)",301,–,–,–,–,–,C12-15 alkyl benzoate [reference compound]
–,–,–,–,–,–,–,–,–,–,–,–,–,–,44,26,26,14,44,CC(=O)OCCc1ccccc1 [2-phenylethyl acetate]
–,–,–,–,–,–,–,–,–,–,–,–,–,–,36,19,23,8,27,CCCCCCCC(=O)OCCc1ccccc1 [2-phenylethyl octanoate]
